Ki and EC50 data for 13 compounds are collected here from patent publication US8580794B2 (AbbVie Inc., priority 2009, dated 2013).

Where only a bound is given, the exact number is not on record here.

The target of one test is GST-Bc1-2 (Homo sapiens, UniProt P10415). Nature of the test: Time Resolved-Fluorescence Resonance Energy Transfer (TR-FRET) Bcl-2 binding assay with F-Bak peptide probe. Particulars: GST-Bcl-2 1 nM, F-Bak probe 100 nM, Tb-anti-GST 1 nM; '<' = below limit of detection; read-out: TR-FRET Bcl-2 Binding Ki. In general terms: In TR-FRET formats the signal depends on donor and acceptor labels being close together.
GST-Bc1-2, sequence (P10415 whole entry): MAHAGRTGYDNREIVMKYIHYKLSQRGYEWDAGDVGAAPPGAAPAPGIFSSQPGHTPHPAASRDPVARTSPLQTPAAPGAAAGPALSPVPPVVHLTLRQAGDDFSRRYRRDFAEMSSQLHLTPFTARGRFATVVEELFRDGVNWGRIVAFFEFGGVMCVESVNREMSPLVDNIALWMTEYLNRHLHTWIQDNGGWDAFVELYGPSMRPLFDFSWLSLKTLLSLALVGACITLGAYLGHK
By Ki is commonly meant the equilibrium dissociation constant of an inhibitor or competing ligand from its target. `CC1(C)CCC(CN2CCN(c3ccc(C(=O)NS(=O)(=O)c4ccc(OCC5(F)CCC(N(CCC#N)C6CC6)CC5)c([N+](=O)[O-])c4)c(Oc4cnc5[nH]ccc5c4)c3)CC2)=C(c2ccc(Cl)cc2)C1` (stereo not shown) [Example 363, 4-(4-{[2-(4-chlorophenyl)-4,4-dimethylcyclohex-1-en-1-yl]methyl}piperazin-1-yl)-N-{[4-({4-[(2-cyanoethyl)(cyclopropyl)amino]-1-fluorocyclohexyl}methoxy)-3-nitrophenyl]sulfonyl}-2-(1H-pyrrolo[2,3-b]pyridin-5-yloxy)benzamide]: the inhibitory constant (Ki) was 0.017 nM.

`CC1(C)CCC(CN2CCN(c3ccc(C(=O)NS(=O)(=O)c4cnc(NCC5CCOCC5)c([N+](=O)[O-])c4)c(Oc4cnc5[nH]ccc5c4)c3)CC2)=C(c2ccc(Cl)cc2)C1` [Example 364, 4-(4-{[2-(4-chlorophenyl)-4,4-dimethylcyclohex-1-en-1-yl]methyl}piperazin-1-yl)-N-({5-nitro-6-[(tetrahydro-2H-pyran-4-ylmethyl)amino]pyridin-3-yl}sulfonyl)-2-(1H-pyrrolo[2,3-b]pyridin-5-yloxy)benzamide]: the Ki was under 0.01 nM.

Regarding `CC1(C)CCC(CN2CCN(c3ccc(C(=O)NS(=O)(=O)c4ccc(NCC5CCC6(CC5)COC6)c([N+](=O)[O-])c4)c(Oc4cnc5[nH]ccc5c4)c3)CC2)=C(c2ccc(Cl)cc2)C1` [Example 365, 4-(4-{[2-(4-chlorophenyl)-4,4-dimethylcyclohex-1-en-1-yl]methyl}piperazin-1-yl)-N-({3-nitro-4-[(2-oxaspiro[3.5]non-7-ylmethyl)amino]phenyl}sulfonyl)-2-(1H-pyrrolo[2,3-b]pyridin-5-yloxy)benzamide], the inhibition constant Ki was under 0.01 nM.

As for `CC1(C)CCC(CN2CCN(c3ccc(C(=O)NS(=O)(=O)c4ccc(NCC5CCC(C)(C#N)CC5)c([N+](=O)[O-])c4)c(Oc4cnc5[nH]ccc5c4)c3)CC2)=C(c2ccc(Cl)cc2)C1` (stereo not shown) [Example 366, 4-(4-{[2-(4-chlorophenyl)-4,4-dimethylcyclohex-1-en-1-yl]methyl}piperazin-1-yl)-N-[(4-{[(4-cyano-4-methylcyclohexyl)methyl]amino}-3-nitrophenyl)sulfonyl]-2-(1H-pyrrolo[2,3-b]pyridin-5-yloxy)benzamide], the inhibition constant (Ki) was 0.024 nM.

For `CC1(C)CCC(CN2CCN(c3ccc(C(=O)NS(=O)(=O)c4cnc5c(c4)nnn5CC4CCOCC4)c(Oc4cnc5[nH]ccc5c4)c3)CC2)=C(c2ccc(Cl)cc2)C1` [Example 370, 4-(4-{[2-(4-chlorophenyl)-4,4-dimethylcyclohex-1-en-1-yl]methyl}piperazin-1-yl)-2-(1H-pyrrolo[2,3-b]pyridin-5-yloxy)-N-{[3-(tetrahydro-2H-pyran-4-ylmethyl)-3H-[1,2,3]triazolo[4,5-b]pyridin-6-yl]sulfonyl}benzamide], the inhibition constant (Ki) turned out to be 0.285 nM.

With `COCC1CCC(CNc2ccc(S(=O)(=O)NC(=O)c3ccc(N4CCN(CC5=C(c6ccc(Cl)cc6)CC(C)(C)CC5)CC4)cc3Oc3cnc4[nH]ccc4c3)cc2[N+](=O)[O-])CC1` (stereo not shown) [Example 374, 4-(4-{[2-(4-chlorophenyl)-4,4-dimethylcyclohex-1-en-1-yl]methyl}piperazin-1-yl)-N-{[4-({[4-(methoxymethyl)cyclohexyl]methyl}amino)-3-nitrophenyl]sulfonyl}-2-(1H-pyrrolo[2,3-b]pyridin-5-yloxy)benzamide], the Ki was under 0.001 nM.

In the case of `CC1(C)CCC(CN2CCN(c3ccc(C(=O)NS(=O)(=O)c4cnc(OCC5CCN(c6nccs6)CC5)c(Cl)c4)c(Oc4cnc5[nH]ccc5c4)c3)CC2)=C(c2ccc(Cl)cc2)C1` [Example 375, 4-(4-{[2-(4-chlorophenyl)-4,4-dimethylcyclohex-1-en-1-yl]methyl}piperazin-1-yl)-N-[(5-chloro-6-{[1-(1,3-thiazol-2-yl)piperidin-4-yl]methoxy}pyridin-3-yl)sulfonyl]-2-(1H-pyrrolo[2,3-b]pyridin-5-yloxy)benzamide], the inhibition constant Ki stood at 0.11 nM.

For `COC1(C)CCC(c2ccc(Cl)cc2)=C(CN2CCN(c3ccc(C(=O)NS(=O)(=O)c4ccc(NCC5CCOCC5)c([N+](=O)[O-])c4)c(Oc4cnc5[nH]ccc5c4)c3)CC2)C1` (stereo not shown) [Example 378, 4-(4-{[2-(4-chlorophenyl)-5-methoxy-5-methylcyclohex-1-en-1-yl]methyl}piperazin-1-yl)-N-({3-nitro-4-[(tetrahydro-2H-pyran-4-ylmethyl)amino]phenyl}sulfonyl)-2-(1H-pyrrolo[2,3-b]pyridin-5-yloxy)benzamide], the Ki is under 0.001 nM.

Still in this test, the particulars now being: TR-FRET Bcl-2 Binding Ki.
For `CC1(C)CCC(CN2CCN(c3ccc(C(=O)NS(=O)(=O)c4ccc(NC(=O)N5CCOCC5)c([N+](=O)[O-])c4)c(Oc4cnc5[nH]ccc5c4)c3)CC2)=C(c2ccc(Cl)cc2)C1` [Example 373, N-(4-{[4-(4-{[2-(4-chlorophenyl)-4,4-dimethylcyclohex-1-en-1-yl]methyl}piperazin-1-yl)-2-(1H-pyrrolo[2,3-b]pyridin-5-yloxy)benzoyl]sulfamoyl}-2-nitrophenyl)morpholine-4-carboxamide], the Ki was under 0.001 nM.

The next test deals with RS4;11 cells. The experiment in a line: RS4;11 Cell Viability Assay (CellTiter Glo).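 Also: RS4,11 acute lymphoblastic leukemia cells, viability as percent of untreated control cells, EC50 for loss of viable cells.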 It is filed as cell-based. Particulars: Homo sapiens, RS4-11, 48 h, 50,000 cells per well, 10% human serum. On the technique in general: Cellular ATP, detected with luciferase, serves as a proxy for viable cell number.
Protocol: The acute lymphoblastic leukemia (ALL) cell line RS4;11 was used as the primary human cell line to assess the cellular activity of Bcl-2 selective agents in vitro and their efficacy in vivo.
Cell cytotoxicity EC50 values were assessed using CellTiter Glo (Promega) according to the manufacturer's recommendations. The EC50 values were determined as a percentage of viable cells following treatment compared to the untreated control cells.
In general, EC50 refers to the concentration at which the effect is half-maximal. Low values mean a more potent agent, high ones a less potent agent. With `CC1(C)CCC(CN2CCN(c3ccc(C(=O)NS(=O)(=O)c4ccc(OC[C@H]5CC[C@H](O)CC5)c([N+](=O)[O-])c4)c(Oc4cnc5[nH]ccc5c4)c3)CC2)=C(c2ccc(Cl)cc2)C1` [Example 196, Trans-4-(4-{[2-(4-chlorophenyl)-4,4-dimethylcyclohex-1-en-1-yl]methyl}piperazin-1-yl)-N-({4-[(4-hydroxycyclohexyl)methoxy]-3-nitrophenyl}sulfonyl)-2-(1H-pyrrolo[2,3-b]pyridin-5-yloxy)benzamide], the EC50 is 1.72 nM.

Compound `CC1(C)CCC(CN2CCN(c3ccc(C(=O)NS(=O)(=O)c4ccc(NCC5CCC(C)(O)CC5)c([N+](=O)[O-])c4)c(Oc4cnc5[nH]ccc5c4)c3)CC2)=C(c2ccc(Cl)cc2)C1` (stereo not drawn) [Example 337, 4-(4-{[2-(4-chlorophenyl)-4,4-dimethylcyclohex-1-en-1-yl]methyl}piperazin-1-yl)-N-[(4-{[(trans-4-hydroxy-4-methylcyclohexyl)methyl]amino}-3-nitrophenyl)sulfonyl]-2-(1H-pyrrolo[2,3-b]pyridin-5-yloxy)benzamide] had an EC50 of 1.76 nM.

As for `CC1(O)CCC(COc2ncc(S(=O)(=O)NC(=O)c3ccc(N4CCN(CC5=C(c6ccc(Cl)cc6)CC6(CC5)CC6)CC4)cc3Oc3cnc4[nH]ccc4c3)cc2Cl)CC1` (stereo not drawn) [Example 341, N-({5-chloro-6-[(trans-4-hydroxy-4-methylcyclohexyl)methoxy]pyridin-3-yl}sulfonyl)-4-(4-{[5-(4-chlorophenyl)spiro[2.5]oct-5-en-6-yl]methyl}piperazin-1-yl)-2-(1H-pyrrolo[2,3-b]pyridin-5-yloxy)benzamide], the EC50 amounted to 31.7 nM. Against the preceding compound, the EC50 is about 18-fold higher.

For `CC1(C)CCC(CN2CCN(c3ccc(C(=O)NS(=O)(=O)c4ccc(OCC5CCC(C)(O)CC5)c(Cl)c4)c(Oc4cnc5[nH]ccc5c4)c3)CC2)=C(c2ccc(Cl)cc2)C1` (stereo not drawn) [Example 362, N-({3-chloro-4-[(trans-4-hydroxy-4-methylcyclohexyl)methoxy]phenyl}sulfonyl)-4-(4-{[2-(4-chlorophenyl)-4,4-dimethylcyclohex-1-en-1-yl]methyl}piperazin-1-yl)-2-(1H-pyrrolo[2,3-b]pyridin-5-yloxy)benzamide], a half-maximal response (EC50) required 31.7 nM. In other words, the double-digit nanomolar range.
